Measured values taken from ChEMBL document CHEMBL5136974, “VHL-based PROTACs as potential therapeutic agents: Recent progress and perspectives” (Eur J Med Chem, 2022).
Each block holds one compound with its values, some of them ahead of it.

Tests used:
SK-BR-3 = assay: Antiproliferative activity against human SK-BR-3 cells; format: functional, cell-based
[1] = target: T1, von Hippel-Lindau disease tumor suppressor/Epidermal growth factor receptor (Homo sapiens, UniProt P00533+P40337); assay: Protac activity against VHL/EGFR in human OVCAR-8 cells assessed as degradation of EGFR relative to control; format: cell-based
[2] = target: T1, von Hippel-Lindau disease tumor suppressor/Epidermal growth factor receptor; assay: Protac activity against VHL/EGFR in human OVCAR-8 cells assessed as degradation of EGFR; format: cell-based
[3] = target: von Hippel-Lindau disease tumor suppressor/GTPase KRas (Homo sapiens, UniProt P01116+P40337, G12C); assay: Protac activity at VHL/KRAS G12C mutant (unknown origin); format: protein assay
[4] = target: von Hippel-Lindau disease tumor suppressor/Oxysterols receptor LXR-beta (Homo sapiens, UniProt P40337+P55055); assay: Protac activity at VHL/LXR (unknown origin) by TR-FRET assay
von Hippel-Lindau disease tumor suppressor/Oxysterols receptor LXR-beta, sequence (P55055 whole entry): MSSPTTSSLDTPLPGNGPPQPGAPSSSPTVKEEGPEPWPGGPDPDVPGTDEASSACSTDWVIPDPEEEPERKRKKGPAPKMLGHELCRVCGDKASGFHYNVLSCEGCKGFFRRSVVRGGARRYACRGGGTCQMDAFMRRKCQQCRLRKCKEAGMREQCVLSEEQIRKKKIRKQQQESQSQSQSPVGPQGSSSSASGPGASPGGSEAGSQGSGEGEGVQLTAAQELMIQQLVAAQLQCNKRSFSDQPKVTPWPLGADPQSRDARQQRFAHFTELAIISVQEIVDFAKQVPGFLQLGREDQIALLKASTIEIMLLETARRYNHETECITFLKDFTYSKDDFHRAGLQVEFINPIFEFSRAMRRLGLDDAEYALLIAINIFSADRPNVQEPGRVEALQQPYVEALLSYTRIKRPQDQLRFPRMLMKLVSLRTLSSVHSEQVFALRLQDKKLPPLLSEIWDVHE
von Hippel-Lindau disease tumor suppressor/Oxysterols receptor LXR-beta, sequence (P40337 whole entry): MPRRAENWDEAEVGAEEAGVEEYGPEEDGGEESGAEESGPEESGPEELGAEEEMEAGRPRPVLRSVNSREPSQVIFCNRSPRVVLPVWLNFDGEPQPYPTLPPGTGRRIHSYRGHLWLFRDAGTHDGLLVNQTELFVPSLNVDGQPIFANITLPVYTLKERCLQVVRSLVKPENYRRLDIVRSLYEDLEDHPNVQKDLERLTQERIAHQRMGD

[5] = target: von Hippel-Lindau disease tumor suppressor/3-hydroxy-3-methylglutaryl-coenzyme A reductase (Homo sapiens, UniProt P04035+P40337); assay: Protac activity at VHL/HMGCR in Insig-silenced human HepG2 cells; format: cell-based
[6] = tested on: von Hippel-Lindau disease tumor suppressor/Epidermal growth factor receptor (Homo sapiens), P00533+P40337 [L858R,T790M]; assay: Protac activity against VHL/geftinib-resistant EGFR L858R/T790M double mutant in human H1975 cells relative to control; format: cell-based; settings: NCI-H1975
[7] = target: T2, Receptor-interacting serine/threonine-protein kinase 2 (Homo sapiens, UniProt O43353); assay: Degradation of RIPK2 (unknown origin)
T2 sequence (O43353 whole entry): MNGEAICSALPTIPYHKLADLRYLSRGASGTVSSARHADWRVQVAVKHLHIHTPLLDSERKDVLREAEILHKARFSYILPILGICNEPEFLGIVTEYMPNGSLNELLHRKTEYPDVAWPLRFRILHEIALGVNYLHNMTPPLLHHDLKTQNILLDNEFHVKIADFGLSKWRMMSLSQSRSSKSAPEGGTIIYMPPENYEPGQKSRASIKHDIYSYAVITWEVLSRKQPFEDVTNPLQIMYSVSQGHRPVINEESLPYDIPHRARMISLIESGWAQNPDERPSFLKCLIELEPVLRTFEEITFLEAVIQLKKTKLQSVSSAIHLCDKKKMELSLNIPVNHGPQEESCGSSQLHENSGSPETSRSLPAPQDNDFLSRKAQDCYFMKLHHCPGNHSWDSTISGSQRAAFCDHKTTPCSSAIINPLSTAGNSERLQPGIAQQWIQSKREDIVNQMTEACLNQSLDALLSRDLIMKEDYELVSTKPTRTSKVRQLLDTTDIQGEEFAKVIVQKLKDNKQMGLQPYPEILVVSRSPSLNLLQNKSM

[8] = target: T2, Receptor-interacting serine/threonine-protein kinase 2; assay: Degradation of RIPK2 (unknown origin) at more than 10 nM relative to control
[9] = target: von Hippel-Lindau disease tumor suppressor/Focal adhesion kinase 1 (Homo sapiens) (UniProt Q05397+P40337); assay: Protac activity at VHL/FAK in serum-free treated human PC-3 cells assessed as degradation of FAK measured after 24 hrs relative to control; format: cell-based
[10] = target: von Hippel-Lindau disease tumor suppressor/Cyclin-dependent kinase 4 (Homo sapiens, UniProt P11802+P40337); assay: Protac activity at VHL/CDK4 in human MM1.S cells assessed as degradation of CDK4 measured after 16 hrs; format: cell-based
[11] = target: T3, von Hippel-Lindau disease tumor suppressor/Cyclin-dependent kinase 6 (Homo sapiens, UniProt Q00534+P40337); assay: Protac activity at VHL/CDK6 in human MM1.S cells assessed as degradation of CDK6 at 100 nM relative to control; format: cell-based
[12] = target: T3, von Hippel-Lindau disease tumor suppressor/Cyclin-dependent kinase 6; assay: Protac activity at VHL/CDK6 in human MM1.S cells assessed as degradation of CDK6 measured after 16 hrs; format: cell-based
Target sequence in this assay (Q00534 whole entry): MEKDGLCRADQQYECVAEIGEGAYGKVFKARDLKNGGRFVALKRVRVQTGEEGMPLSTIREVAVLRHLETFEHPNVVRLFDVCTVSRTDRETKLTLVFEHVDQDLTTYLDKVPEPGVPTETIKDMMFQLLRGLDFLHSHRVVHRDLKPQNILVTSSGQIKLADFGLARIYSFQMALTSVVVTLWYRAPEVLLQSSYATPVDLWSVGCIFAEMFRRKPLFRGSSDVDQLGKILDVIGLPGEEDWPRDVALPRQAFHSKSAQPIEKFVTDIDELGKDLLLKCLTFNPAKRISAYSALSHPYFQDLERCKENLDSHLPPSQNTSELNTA
Target sequence in this assay (P40337 whole entry): as the sequence (P40337 whole entry) above

MV4-11 = assay: Antiproliferative activity against human MV4-11 cells; format: functional, cell-based
MOLM-14 = assay: Antiproliferative activity against human MOLM-14 cells; format: functional, cell-based
SK-MEL-28 = assay: Antiproliferative activity against human SK-MEL-28 cells; format: functional, cell-based
HT-29 = assay: Antiproliferative activity against human HT-29 cells; format: functional, cell-based
[13] = target: ALK tyrosine kinase receptor (Homo sapiens, UniProt Q9UM73); assay: Inhibition of ALK (unknown origin) incubated for 1 hr by HTRF assay
[14] = target: NPM/ALK (Nucleophosmin/ALK tyrosine kinase receptor) (Homo sapiens) (UniProt Q9UM73+P06748); assay: Inhibition of NPM-ALK in human SU-DHL-1 cells at […] relative to control; format: cell-based
[15] = target: von Hippel-Lindau disease tumor suppressor/Epidermal growth factor receptor (Homo sapiens, UniProt P00533+P40337, L858R); assay: Protac activity against VHL/EGFR L858R mutant in human […] cells; format: cell-based
[16] = tested on: von Hippel-Lindau disease tumor suppressor/Epidermal growth factor receptor (Homo sapiens), P00533+P40337 [UNDEFINED MUTATION]; assay: Protac activity against VHL/EGFR deletion 19 mutant in human HCC827 cells relative to control; format: cell-based
[17] = tested on: von Hippel-Lindau disease tumor suppressor/Epidermal growth factor receptor (Homo sapiens), P00533+P40337 [L858R]; assay: Protac activity against VHL/EGFR L858R mutant in human […] cells relative to control; format: cell-based
[18] = target: T1, von Hippel-Lindau disease tumor suppressor/Epidermal growth factor receptor; assay: Protac activity against VHL/EGFR deletion 19 mutant in human HCC827 cells; format: cell-based
[19] = target: Dihydroorotate dehydrogenase (quinone), mitochondrial (Homo sapiens, UniProt Q02127); assay: Inhibition of DHODH (unknown origin)
Dihydroorotate dehydrogenase (quinone), mitochondrial, sequence (Q02127 whole entry): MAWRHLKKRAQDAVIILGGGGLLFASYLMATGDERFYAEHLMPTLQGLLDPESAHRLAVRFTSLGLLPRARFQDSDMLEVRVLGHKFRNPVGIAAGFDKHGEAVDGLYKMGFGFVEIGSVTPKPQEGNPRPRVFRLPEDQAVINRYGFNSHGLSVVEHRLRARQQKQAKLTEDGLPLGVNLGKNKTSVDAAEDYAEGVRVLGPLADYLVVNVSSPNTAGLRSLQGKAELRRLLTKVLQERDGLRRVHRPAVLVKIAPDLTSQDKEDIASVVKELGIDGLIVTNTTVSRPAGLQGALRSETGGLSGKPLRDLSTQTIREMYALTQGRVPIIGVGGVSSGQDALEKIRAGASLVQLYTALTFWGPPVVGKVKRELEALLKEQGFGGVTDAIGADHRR

[20] = target: T4, von Hippel-Lindau disease tumor suppressor/Androgen receptor (Homo sapiens, UniProt P10275+P40337); assay: Protac activity at VHL/full length androgen receptor (unknown origin) assessed as degradation of androgen receptor
[21] = target: T4, von Hippel-Lindau disease tumor suppressor/Androgen receptor; assay: Protac activity at VHL/androgen receptor (unknown origin) assessed as degradation of androgen receptor; format: protein assay
Polycomb protein EED = Polycomb protein EED (Homo sapiens, UniProt O75530); assay: Binding affinity to EED (unknown origin) assessed as dissociation constant
Polycomb protein EED, sequence (O75530 whole entry): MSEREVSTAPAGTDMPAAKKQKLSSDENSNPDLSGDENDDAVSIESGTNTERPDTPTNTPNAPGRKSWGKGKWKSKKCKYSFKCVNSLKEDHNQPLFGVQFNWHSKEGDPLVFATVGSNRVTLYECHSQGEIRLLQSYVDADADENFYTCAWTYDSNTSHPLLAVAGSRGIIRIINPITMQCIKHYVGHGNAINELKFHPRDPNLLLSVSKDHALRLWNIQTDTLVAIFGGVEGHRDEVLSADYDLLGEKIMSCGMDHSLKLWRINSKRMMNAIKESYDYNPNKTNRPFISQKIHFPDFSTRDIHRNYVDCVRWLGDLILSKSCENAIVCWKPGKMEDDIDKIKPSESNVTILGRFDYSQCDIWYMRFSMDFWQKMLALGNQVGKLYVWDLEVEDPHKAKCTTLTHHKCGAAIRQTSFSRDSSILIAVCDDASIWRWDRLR

[22] = Inhibition of PRC2 (unknown origin); parameters: species or system Homo sapiens
[23] = target: Serine/threonine-protein kinase B-raf (Homo sapiens) (UniProt P15056); assay: Inhibition of BRAF mutant (unknown origin) relative to control
[24] = Inhibition of BRAF mutant (unknown origin); parameters: species or system Homo sapiens
[25] = target: T5, von Hippel-Lindau disease tumor suppressor/Estrogen receptor (Homo sapiens, UniProt P03372+P40337); assay: Protac activity at VHL/ER (unknown origin) assessed as degradation of ER relative to control
Target sequence in this assay (P03372 whole entry, looked up): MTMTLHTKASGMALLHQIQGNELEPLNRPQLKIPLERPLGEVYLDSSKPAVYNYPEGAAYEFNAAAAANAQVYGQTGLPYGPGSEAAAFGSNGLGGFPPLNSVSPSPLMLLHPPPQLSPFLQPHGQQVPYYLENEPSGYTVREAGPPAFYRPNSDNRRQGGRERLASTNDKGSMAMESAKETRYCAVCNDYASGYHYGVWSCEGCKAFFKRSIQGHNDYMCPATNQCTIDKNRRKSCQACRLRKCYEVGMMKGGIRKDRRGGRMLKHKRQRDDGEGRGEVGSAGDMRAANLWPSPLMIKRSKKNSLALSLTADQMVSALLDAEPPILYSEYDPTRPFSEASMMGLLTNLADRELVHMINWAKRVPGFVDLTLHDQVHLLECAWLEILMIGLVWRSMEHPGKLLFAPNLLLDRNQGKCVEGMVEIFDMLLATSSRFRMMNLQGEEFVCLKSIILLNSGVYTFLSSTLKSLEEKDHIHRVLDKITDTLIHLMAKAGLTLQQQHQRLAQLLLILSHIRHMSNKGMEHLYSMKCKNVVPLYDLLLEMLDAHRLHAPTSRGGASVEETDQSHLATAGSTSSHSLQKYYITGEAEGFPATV
Target sequence in this assay (P40337 whole entry, looked up): as the sequence (P40337 whole entry) above

MCF7 [26] = assay: Antiproliferative activity against human MCF7 cells relative to control; format: functional
MCF7 [27] = assay: Antiproliferative activity against human MCF7 cells; format: functional, cell-based
[28] = target: T5, von Hippel-Lindau disease tumor suppressor/Estrogen receptor; assay: Protac activity at VHL/ER (unknown origin) assessed as degradation of ER
Target sequence in this assay (P03372 whole entry): as the sequence (P03372 whole entry, looked up) above
Target sequence in this assay (P40337 whole entry): as the sequence (P40337 whole entry) above

[29] = target: T6, von Hippel-Lindau disease tumor suppressor/Serine/threonine-protein kinase Sgk3 (Homo sapiens) (UniProt Q96BR1+P40337); assay: Protac activity at VHL/SGK3 in human HEK293 cells at […] measured within 2 hrs relative to control; format: cell-based
T6 sequence (P40337 whole entry, looked up): as the sequence (P40337 whole entry) above
T6 sequence (Q96BR1 whole entry, looked up): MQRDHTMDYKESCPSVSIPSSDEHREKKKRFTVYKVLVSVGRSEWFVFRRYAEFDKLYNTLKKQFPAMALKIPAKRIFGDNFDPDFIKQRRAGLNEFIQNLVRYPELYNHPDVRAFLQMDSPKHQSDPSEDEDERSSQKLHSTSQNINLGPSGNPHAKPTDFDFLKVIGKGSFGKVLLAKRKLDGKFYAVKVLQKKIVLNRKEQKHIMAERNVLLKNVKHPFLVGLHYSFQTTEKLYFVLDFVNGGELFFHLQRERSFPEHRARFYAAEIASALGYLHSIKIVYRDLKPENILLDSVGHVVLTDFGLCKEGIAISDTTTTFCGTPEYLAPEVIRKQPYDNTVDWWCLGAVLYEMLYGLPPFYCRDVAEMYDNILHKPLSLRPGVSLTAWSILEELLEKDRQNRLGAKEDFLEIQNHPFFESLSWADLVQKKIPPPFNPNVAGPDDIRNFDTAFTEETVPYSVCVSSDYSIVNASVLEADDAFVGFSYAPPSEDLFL

[30] = target: T6, von Hippel-Lindau disease tumor suppressor/Serine/threonine-protein kinase Sgk3 (Homo sapiens); assay: Protac activity at VHL/SGK3 in human HEK293 cells at […] measured within 8 hrs relative to control; format: cell-based

SMILES: C=C(F)C(=O)N1CCN(c2nc(OC[C@@H]3CCCN3CCCOCCC(=O)N[C@H](C(=O)N3C[C@H](O)C[C@H]3C(=O)NCc3ccc(-c4scnc4C)cc3)C(C)(C)C)nc3c2CCN(c2cccc4cccc(Cl)c24)C3)C[C@@H]1CC#N
DC50 [3]: 250 nM

SMILES: O=C(O)Cc1cccc(OCCCN(Cc2cccc(C(F)(F)F)c2Cl)CC(c2ccccc2)c2ccccc2)c1
EC50 [4]: 20 nM

SMILES: Cc1ncsc1-c1ccc(CNC(=O)[C@@H]2C[C@@H](O)CN2C(=O)[C@@H](NC(=O)CCCCCCCCCCNC(=O)O[C@H]2C[C@@H](C)C=C3C=C[C@H](C)[C@H](CC[C@@H](O)C[C@@H](O)CC(=O)O)[C@H]32)C(C)(C)C)cc1
DC50 [5]: 120 nM

SMILES: Cc1ncsc1-c1ccc(CNC(=O)[C@@H]2C[C@@H](O)CN2C(=O)[C@@H](NC(=O)CCCCCOCCCCOCCCCOc2cc3ncnc(Nc4ccc(F)c(Cl)c4)c3cc2NC(=O)/C=C/CN(C)C)C(C)(C)C)cc1
Emax [6]: 79.1%

SMILES: Cc1ncsc1-c1ccc([C@H](C)NC(=O)[C@@H]2C[C@@H](OC(=O)CCCCn3cc(CNC(=O)CC[C@H](NC(=O)c4ccc(NCc5cnc6nc(N)[nH]c(=O)c6n5)cc4)C(=O)O)nn3)CN2C(=O)[C@@H](NC(=O)CCCCCCCCCCNCCCONC(=O)c2ccc(F)c(F)c2Nc2ccc(I)cc2F)C(C)(C)C)cc1
IC50 (SK-MEL-28): 390 nM
IC50 (HT-29): 436 nM

SMILES: Cc1cc(Nc2ncc(Cl)c(Nc3ccccc3S(=O)(=O)C(C)C)n2)c(OC(C)C)cc1C1CCN(C(=O)CCCC(=O)N[C@H](C(=O)N2C[C@H](O)C[C@H]2C(=O)NCc2ccc(-c3scnc3C)cc2)C(C)(C)C)CC1
IC50 [13]: 7 nM
inhibition [14]: 90%

SMILES: COc1cc2ncnc(Nc3ccc(F)c(Cl)c3)c2cc1OCCCCCOCCOCCC(=O)N[C@H](C(=O)N1C[C@H](O)C[C@H]1C(=O)NCc1ccc(-c2scnc2C)cc1)C(C)(C)C
DC50 [15]: 22.3 nM
Emax [16]: 98.9%
Emax [17]: 96.6%
DC50 [18]: 11.7 nM

SMILES: Cc1ncsc1-c1ccc(CNC(=O)[C@@H]2C[C@@H](O)CN2C(=O)[C@@H](NC(=O)OCCOCCOCCOc2ccc(-c3ccc(-c4nc5ccc(F)cc5c(C(=O)O)c4C)cc3)cc2)C(C)(C)C)cc1
IC50 [19]: 93 nM

SMILES: Cc1nc(CCC(=O)NCCCCC(=O)N[C@H](C(=O)N2C[C@H](O)C[C@H]2C(=O)NCc2ccc(-c3scnc3C)cc2)C(C)(C)C)ccc1-c1cnc(NCc2c(F)ccc3c2CCO3)n2cnnc12
Kd (Polycomb protein EED): 1 nM
pIC50 [22]: 8.1

Further lines, with some results ahead:

IC50 (SK-BR-3): 102 nM
Emax [1]: 97.6%
DC50 [2]: 39.2 nM
SMILES: Cc1ncsc1-c1ccc(CNC(=O)[C@@H]2C[C@@H](O)CN2C(=O)[C@@H](NC(=O)COCCOCCOc2ccc(-c3ccc4ncnc(Nc5ccc(OCc6cccc(F)c6)c(Cl)c5)c4c3)cc2)C(C)(C)C)cc1

DC50 [7]: 1.4 nM
Emax [8]: > 95%
SMILES: Cc1ncsc1-c1ccc(CNC(=O)[C@@H]2C[C@@H](O)CN2C(=O)[C@@H](NC(=O)COCCOCCOCCOCCOc2cc3nccc(Nc4ccc5scnc5c4)c3cc2S(=O)(=O)C(C)(C)C)C(C)(C)C)cc1

Emax [9]: 99%
SMILES: Cc1ncsc1-c1ccc(CNC(=O)[C@@H]2C[C@@H](O)CN2C(=O)[C@@H](NC(=O)CCOCCOc2ccc(Nc3ncc(C(F)(F)F)c(NCc4cccc(N(C)S(C)(=O)=O)c4)n3)cc2)C(C)(C)C)cc1

DC50 [10]: 20 nM
Activity [11]: > 95%
DC50 [12]: 5.1 nM
SMILES: CC(=O)c1c(C)c2cnc(Nc3ccc(N4CCN(CCOCCOCCOc5cc(-c6scnc6C)ccc5CNC(=O)[C@@H]5C[C@@H](O)CN5C(=O)[C@@H](NC(=O)C5(F)CC5)C(C)(C)C)CC4)cn3)nc2n(C2CCCC2)c1=O

IC50 (MV4-11): 0.6 nM
IC50 (MOLM-14): 0.6 nM
SMILES: Cc1ncsc1-c1ccc(CNC(=O)[C@@H]2C[C@@H](O)CN2C(=O)[C@@H](NC(=O)CCOCCOCCOc2ccc3c(c2)sc2nc(-c4ccc(NC(=O)Nc5cc(C(C)(C)C)on5)cc4)cn23)C(C)(C)C)cc1

DC50 [20]: 2000 nM
DC50 [21]: 370 nM
SMILES: Cc1ncsc1-c1ccc([C@H](C)NC(=O)[C@@H]2C[C@@H](O)CN2C(=O)[C@@H](NC(=O)CCCCCNC(=O)COc2ccccc2-c2csc(N3CCOCC3)n2)C(C)(C)C)cc1

Emax [23]: > 95%
IC50 [24]: 6.8 nM
SMILES: CCCS(=O)(=O)Nc1ccc(F)c(C(=O)c2c[nH]c3ncc(-c4ccc(N5CCN(CC(=O)N[C@H](C(=O)N6C[C@H](O)C[C@H]6C(=O)NCc6ccc(-c7scnc7C)cc6)C(C)(C)C)CC5)cc4)cc23)c1F

Kd (Polycomb protein EED): 1 nM
pIC50 [22]: 8.1
SMILES: Cc1nc(CCC(=O)NCCOc2ccc(OCC(=O)N[C@H](C(=O)N3C[C@H](O)C[C@H]3C(=O)NCc3ccc(-c4scnc4C)cc3)C(C)(C)C)cc2)ccc1-c1cnc(NCc2c(F)ccc3c2CCO3)n2cnnc12

EC50 [4]: 31 nM
SMILES: Cc1ncsc1-c1ccc(CNC(=O)[C@@H]2C[C@@H](O)CN2C(=O)[C@@H](NC(=O)COCCOCCOCCOCCOCCNC(=O)Cc2cccc(OCCCN(Cc3cccc(C(F)(F)F)c3Cl)CC(c3ccccc3)c3ccccc3)c2)C(C)(C)C)cc1

IC50 [19]: > 200000 nM
SMILES: COC(=O)c1c(C)c(-c2ccc(-c3ccc(OCCOCCOCCOC(=O)N[C@H](C(=O)N4C[C@H](O)C[C@H]4C(=O)NCc4ccc(-c5scnc5C)cc4)C(C)(C)C)cc3)cc2)nc2ccc(F)cc12

Emax [25]: 98%
IC50 (MCF7 [27]): 13.2 nM
DC50 [28]: 1.1 nM
SMILES: Cc1ncsc1-c1ccc([C@H](C)NC(=O)[C@@H]2C[C@@H](O)CN2C(=O)[C@@H](NC(=O)CCCCOc2ccc(CCNC(=O)c3ccc(C(=O)c4c(-c5ccc(O)cc5)sc5cc(O)ccc45)cc3)cc2)C(C)(C)C)cc1
Imax (MCF7 [26]): 69%

Activity [29]: 50%
Activity [30]: 80%
SMILES: Cc1ccc(F)c(S(=O)(=O)Nc2ccc(-c3nc(OC[C@H]4CN(CCCCCCOCCOCCOCC(=O)N[C@H](C(=O)N5C[C@H](O)C[C@H]5C(=O)NCc5ccc(-c6scnc6C)cc5)C(C)(C)C)CCO4)c4cn[nH]c4n3)cc2)c1

Emax [25]: 95%
DC50 [28]: 10 nM
SMILES: Cc1ncsc1-c1ccc([C@H](C)NC(=O)[C@@H]2C[C@@H](O)CN2C(=O)[C@@H](NC(=O)CCCCOc2ccc(/C=N/NC(=O)c3ccc(C(=O)c4c(-c5ccc(O)cc5)sc5cc(O)ccc45)cc3)cc2)C(C)(C)C)cc1 (stereo in doubt)
